US11396535B2, “Cyclic peptide analogs of melanocortin and amanitin and methods of making such” (THE UNIVERSITY OF BRITISH COLUMBIA, priority 2019, dated 2022)
Starred links: 1 amine or outer side, 2 acyl side, 3 side chain; linkers in the order of their positions; H or OH if unused. Positions of bridges follow the written chain, without caps; N, C: chain ends. Non-standard residues stand in square brackets, D forms with d. Residues, ends and D or L forms follow the SMILES beside them. ξ: configuration not given here. Ile(4R-OH,5-OH) = C[C@H]([C@H](N)C(=O)O)[C@@H](O)CO; X1 = O=C([C@H](Cn1cc2ccccc2c1[*:3])N[*:1])[*:2]; Hyp = O=C(O)[C@@H]1C[C@@H](O)CN1; Dap = NC[C@H](N)C(=O)O; ξC = NC(CS)C(=O)O

Key:
[1] = system: CHO cells; format: cell-based; details: for toxicity (cytotoxicity): triplicate
Experimental: FIG. 6: Cytotoxicity assays—CHO cells were incubated with α-amanitin, the monocyclic octapeptide precursor and the FlICk-amanitin-1 for 72 h in triplicate and cell viability was assessed by spectrophotometry with MTT indicator.
FIGS. 11A-11B: MTT cell viability assay against CHO cells: (A) alpha-amanitin; (B) FlICk-amanitin.
Both FlICk amanitin and authentic α-amanitin (purchased from Sigma Aldrich) were dissolved in H2O. The FlICk amanitin concentrations used were 100 μM, 20 μM, 4 μM, 0.8 μM, 0.16 μM, 0.032 μM, 0.0064 μM, 0.00128 μM. The α-amanitin concentrations used were 10 μM, 2 μM, 0.4 μM, 0.08 μM, 0.016 μM, 0.0032 μM, 0.00064 μM, 0.000128 μM, 0.0000256 μM. The cell culture and MTT assay procedures were carried out as per our report on the total synthesis of α-amanitin^38. The MTT assays were run in triplicate. The IC50 assay curves were produced using Prism Software.

[2] = system: CHO cells; details: literature value, read-out: IC50 (cytotoxic to CHO cells); cited from earlier work
[3] = target: melanocortin receptors; details: literature value; cited from earlier work

Compound: CC[C@H](C)[C@@H]1NC(=O)CNC(=O)[C@@H]2Cn3cc4ccccc4c3SCC(NC(=O)CNC1=O)C(=O)N[C@@H](CC(N)=O)C(=O)N1C[C@H](O)C[C@H]1C(=O)N[C@@H]([C@@H](C)[C@@H](O)CO)C(=O)N2 [FlICk-amanitin-1] (cyclo(GIG[ξC]N[Hyp][Ile(4R-OH,5-OH)][X1]); thioether 4-8)
- fold less toxic than α-amanitin ([1]; 72 h, MTT): approximately 100 fold
- toxicity (cytotoxicity) ([1]; 72 h, MTT): detectable toxicity
- fold less toxic than dideoxy-amanitin ([1]; versus dideoxy-amanitin IC50 of 2 μM): 20 fold

Compound: CC[C@H](C)[C@@H]1NC(=O)CNC(=O)[C@H](CN)NC(=O)[C@H]([C@@H](C)[C@@H](O)CO)NC(=O)[C@@H]2C[C@@H](O)CN2C(=O)[C@H](CC(N)=O)NC(=O)[C@H](CS)NC(=O)CNC1=O [monocyclic octapeptide precursor, Cyclo-[DhIle-Dap-Gly-Ile-Gly-Cys-Asn-Hyp]] (cyclo(CN[Hyp][Ile(4R-OH,5-OH)][Dap]GIG))
- toxicity (cytotoxicity) ([1]; 72 h, MTT): no detectable toxicity

Compound: α-amanitin
- IC50 [2]: ~500 nM

Compound: N-Acetyl-L-norleucyl-L-α-aspartyl-L-histidyl-D-phenylalanyl-L-arginyl-L-tryptophyl-L-lysinamide (2→7)-lactam [Melanotan-II]
- Kd [3]: ~1 nM
